Earlier results, collected in patent publication US20240287015A1, “Method for Producing an Ionizable Lipid” (NanoVation Therapeutics Inc., priority 2021, published 2024).

Conditions: siRNA LNP formulations; MC3 relative to similar KC2-based formulations

SMILES: CCCCC/C=C\C/C=C\CCCCCCCCC(CCCCCCCC/C=C\C/C=C\CCCCC)OC(=O)CCCN(C)C [MC3, (6Z,9Z,28Z,31Z)-heptatriacont-6,9,28,31-tetraene-19-yl 4-(dimethylamino)butanoate]
- times less siRNA required than KC2 to attain the same end result: about 3 times
